{"source": "patent US7935685B2", "about": "“Process for preparation of inclusion compounds between a non-steroidal anti-inflammatory drug and betacyclodextrin by microwave treatment” (Chiesi Farmaceutici S.p.A., priority 2001, dated 2011)", "assay": "Dissolution rate of piroxicam from the solid phases, dispersed amount method (USP 25, NF 20)", "assay_type": "physicochemical", "settings": "1 L distilled water, 37° C., paddle 50 rpm", "procedure": "The dissolution rate of the samples under study was determined by the dispersed amount method according to the USP 25, NF 20, 2002. The test samples were introduced into vessels containing 1 L of distilled water each.\nThe test was conducted by maintaining the temperature of the dissolving bath at 37° C. and regulating the paddle rotation speed to 50 rpm.\nThe concentration of the drug in solution was determined at 2-minute intervals by spectrophotometry.\nEach sample was analysed in triplicate."}
{"smiles": "CN1C(C(=O)Nc2ccccn2)=C(O)c2ccccc2S1(=O)=O", "note": "[PRX, piroxicam]", "values": [{"measurement": "% DISS (percentage compared with the initial dose of PRX in the sample)", "setting": "T 0 min", "value": 0, "unit": "%"}, {"measurement": "% DISS (percentage compared with the initial dose of PRX in the sample)", "setting": "T 2 min", "value": 0.052, "unit": "%"}, {"measurement": "% DISS (percentage compared with the initial dose of PRX in the sample)", "setting": "T 4 min", "value": 0.245, "unit": "%"}, {"measurement": "% DISS (percentage compared with the initial dose of PRX in the sample)", "setting": "T 6 min", "value": 0.451, "unit": "%"}, {"measurement": "% DISS (percentage compared with the initial dose of PRX in the sample)", "setting": "T 8 min", "value": 0.619, "unit": "%"}, {"measurement": "% DISS (percentage compared with the initial dose of PRX in the sample)", "setting": "T 10 min", "value": 0.851, "unit": "%"}, {"measurement": "% DISS (percentage compared with the initial dose of PRX in the sample)", "setting": "T 20 min", "value": 2.051, "unit": "%"}, {"measurement": "% DISS (percentage compared with the initial dose of PRX in the sample)", "setting": "T 30 min", "value": 3.340, "unit": "%"}, {"measurement": "% DISS (percentage compared with the initial dose of PRX in the sample)", "setting": "T 40 min", "value": 4.694, "unit": "%"}, {"measurement": "% DISS (percentage compared with the initial dose of PRX in the sample)", "setting": "T 50 min", "value": 6.087, "unit": "%"}, {"measurement": "% DISS (percentage compared with the initial dose of PRX in the sample)", "setting": "T 60 min", "value": 7.635, "unit": "%"}]}
